# Values joined by “and” are separate entries in the source; they are usually repeats but may differ in a detail not shown here. Equal entries are not always repeated. Where two headings read alike, the source gives them in different places.
# Key:
# [1] = system: A. baumannii (G-) strain ATCC 19606; assay: Antimicrobial growth inhibition (CO-ADD), A. baumannii; format: cell-based, Acinetobacter baumannii
# Protocol: (§1) Compounds 1−3 and 5−12 were assayed against a selection of medically important pathogenic microorganisms (MRSA, E. coli, K. pneumoniae, A. baumanii, P. aeruginosa, C. albicans, C. neoformans), Table 4. […] To the best of our knowledge this compound had not been tested against any drug resistant strain of Gram-positive bacterium until this study.
# (§2) The antimicrobial activity testing was performed by the Community for Antimicrobial Drug Discovery (CO-ADD). Compounds were assayed against a range of both Gram negative and Gram positive bacteria (see Supplementary Materials S3) including methicillin-resistant Staphylococcus aureus (MRSA) (G+), Escherichia coli (G-), Klebsiella pneumoniae (G-), Acinetobacter baumannii (G-), Pseudomonas aeruginosa (G-) together with two species of fungus (Candida albicans and Cryptococcus neoformans).
# (§3) S3. Antimicrobial activity testing methodology
# (§4) The compounds submitted to CO-ADD were evaluated in duplicate (n = 2) against seven microorganisms (five bacteria and two fungi) at a concentration of 32 µg/mL in a 384-well, non-binding surface plate (NBS) for each bacterial/fungal strain, keeping the final DMSO concentration to a maximum of 1% DMSO. All bacteria were cultured in cation-adjusted Mueller-Hinton broth (CAMHB) at 37 °C overnight. A sample of each culture was then diluted 40-fold in fresh broth and incubated at 37 °C for 1.5-3 h. The resultant mid-log phase cultures were diluted (CFU/mL measured by OD600), then added to each well of the compound containing plates, giving a cell density of 5x10^5 CFU/mL and a total volume of 50 µL. All the plates were covered and incubated at 37 °C for 18 h without shaking. […] Inhibition of bacterial growth was determined measuring absorbance at 600 nm (OD600) using a Tecan M1000 Pro mon-ochromator plate reader. […]
# (§5) 2 h. The absorbance was measured using a Biotek Synergy HTX plate reader. The percentage of growth inhibition was calculated for each well, using negative control (medium only) and positive control (bacteria without inhibitors) on the same plate as the references. The significance of inhibition values was determined by modified Z-scores, calculated using the median and MAD of the samples (no controls) on the same plate. Samples with inhibition value above 80% and Z-score above 2.5 for either replicate (n = 2 on different plates) were classed as actives.
# (§6) Colistin and vancomycin were used as positive bacterial inhibitor standards for Gram-negative and Gram-positive bac-teria, respectively. Fluconazole was used as a positive fungal inhibitor standard for C. albicans and C. neoformans. The antibiotics were provided in four concentrations, with two above and two below its MIC value, and plated into the first eight wells of column 23 of the 384-well NBS plates. The quality control (QC) of the assays was determined by the antimicrobial controls and the Z’-factor (using positive and negative controls). Each plate was deemed to fulfil the qual- […]
# (§7) full growth inhibition at their highest concentration, and no growth inhibition at their lowest concentration. The seven […]
# (§8) test microorganisms were Staphylococcus aureus MRSA (ATCC 43300), Escherichia coli (ATCC 25922), Klebsiella pneu-moniae (ATCC 700603), Acinetobacter baumanii (ATCC19606), Pseudomonas aeruginosa (ATCC 27853), Candida albicans (ATCC 90028) and Cryptococcus neoformans var. grubii (H99; ATCC 208821).
# (§9) S4. Anthelmintic activity testing methodology
# (§10) Dose-response evaluations were carried out to estimate the half-maximal inhibitory concentrations (IC50 values) for compounds against Haemonchus contortus (Haecon-5 strain) exsheathed third-stage larvae (xL3s). H. contortus were maintained in experimental sheep and procured in accordance with the institutional animal ethics guidelines and the regulations of Australia (permit no. 1714374; University of Melbourne). Immediately prior to use, third-stage larvae (L3s) were exsheathed and sterilised by incubation in 0.15% (v/v) bleach at 38 °C for 20 min, followed by washes in […]
# [2] = system: C. neoformans var. grubii strain ATCC 208821; assay: Antimicrobial growth inhibition (CO-ADD), C. neoformans; format: cell-based, Cryptococcus neoformans; conditions: for % inhibition C. neoformans: 32 µg/mL, duplicate (n = 2) values
# Protocol: as §1, §2, §3
# The compounds submitted to CO-ADD were evaluated in duplicate (n = 2) against seven microorganisms (five bacteria and two fungi) at a concentration of 32 µg/mL in a 384-well, non-binding surface plate (NBS) for each bacterial/fungal strain, keeping the final DMSO concentration to a maximum of 1% DMSO. All bacteria were cultured in cation-adjusted […]
# Fungal strains were cultured for 3 days on Yeast Extract-Peptone Dextrose (YPD) agar at 30 °C. A yeast suspension of 1 x 10^6 to 5 x 10^6 CFU/mL (as determined by OD530) was prepared from five colonies. The suspension was subsequently diluted and added to each well of the compound-containing plates giving a final cell density of fungi suspension of 2.5 x 10^3 CFU/mL and a total volume of 50 µL. All plates were covered and incubated at 35 °C for 24 h without shaking. […]
# as §5, with “Growth inhibition of C. albicans was determined measuring absorbance at 530 nm (OD530), while the growth inhibition of C. neoformans was determined measuring the difference in absorbance between 600 and 570 nm (OD600-570), after the addition of resazurin (0.001% final concentration) and incubation at 35 °C for an additional 2 h.” for “2 h.”
# as §6, §7, §8, §9
# Dose-response evaluations were carried out to estimate the half-maximal inhibitory concentrations (IC50 values) for compounds against Haemonchus contortus (Haecon-5 strain) exsheathed third-stage larvae (xL3s). H. contortus were maintained in experimental sheep and procured in accordance with the institutional animal ethics guidelines and the […]
# [3] = system: MRSA (G+) strain ATCC 43300; assay: Antimicrobial growth inhibition (CO-ADD), MRSA; format: cell-based, Staphylococcus aureus; conditions: for % inhibition MRSA: 32 µg/mL, duplicate (n = 2) values; for inhibition at 32 µg/mL / MIC: Staphylococcus aureus
# Protocol: as §1, §2, §3, §4, §5, §6, §7, §8, §9, §10
# human red blood cells = assay: Haemolysis assay (CO-ADD); format: cell-based
# [4] = Cytotoxicity assay (CO-ADD); format: cell-based; conditions: human embryonic kidney cells
# [5] = system: K. pneumoniae (G-) strain ATCC 700603; assay: Antimicrobial growth inhibition (CO-ADD), K. pneumoniae; format: cell-based, Klebsiella pneumoniae; conditions: for % inhibition K. pneumoniae: 32 µg/mL; for MIC / inhibition at 32 µg/mL: Klebsiella pneumoniae
# Protocol: as §1, §2, §3, §4, §5, §6, §7, §8, §9, §10
# [6] = system: E. Coli (G-) strain ATCC 25922; assay: Antimicrobial growth inhibition (CO-ADD), E. coli; format: cell-based, Escherichia coli; conditions: for % inhibition E. coli: 32 µg/mL, duplicate (n = 2) values; for inhibition at 32 µg/mL / MIC: Escherichia coli
# Protocol: as §1, §2, §3, §4, §5, §6, §7, §8, §9, §10
# [7] = Acinetobacter baumannii, ATCC19606, ATCC 19606, read-out: MIC A. baumannii
# [8] = ATCC 43300, MIC = concentration at which growth inhibited by ≥80%, range 0.25−32 µg/mL, read-out: MIC MRSA
# [9] = ATCC700603, ATCC 700603, read-out: MIC K. pneumoniae
# [10] = ATCC25922, ATCC 25922, MIC = concentration at which growth inhibited by ≥80%, read-out: MIC E. coli
SMILES,% inhibition C. neoformans [2],% inhibition MRSA [3],Haemolysis (HC10) (human red blood cells) [µg/mL],CC50 [4] [mg/L],% inhibition K. pneumoniae ([5]; duplicate (n = 2) values),% inhibition E. coli [6],"MIC [1, 7] [mg/L]","MIC [3, 8] [mg/L]","MIC [5, 9] [mg/L]","MIC [6, 10] [mg/L]",other results
"COC1=C(Br)[C@H](O)[C@](O)(CC#N)C=C1Br [Compound 1, (+)-aeroplysinin-1]",−6.6% and 0.0%,96.7%,>32,> 32,−2.8% and −3.3%,95.2%,–,–,–,–,"MIC ([1]; Acinetobacter baumannii, ATCC19606, read-out: MIC A. baumannii): > 32 mg/L; MIC MRSA ([3]; ATCC 43300, MIC = concentration at which growth inhibited by ≥80%, range 0.25−32 µg/mL): 32 mg/L; inhibition at 32 µg/mL ([3]; read-out: % inhibition MRSA, 32 µg/mL, duplicate (n = 2) values): 95.9%; MIC ([3]; read-out: MIC MRSA, ATCC 43300, MIC = concentration at which growth inhibited by ≥80%, range 0.25−32 µg/mL): < 32 mg/L; inhibition at 32 µg/mL ([3]; read-out: mean value of % inhibition against MRSA, 32 µg/mL, mean of duplicates): 96.3%; MIC ([5]; ATCC700603, read-out: MIC K. pneumoniae): > 32 mg/L; inhibition at 32 µg/mL ([6]; ATCC25922, read-out: % inhibition E. coli, 32 µg/mL, duplicate (n = 2) values): 93.7%; MIC ([6]; ATCC25922, read-out: MIC E. coli): 32 mg/L; inhibition at 32 µg/mL ([6]; ATCC25922, read-out: mean value of % inhibition against E. coli, 32 µg/mL, mean of duplicates): 94.5%"
"COC1=C(Br)[C@H](O)[C@@]2(C=C1Br)CC(C(=O)NCCCCNC(=O)C1=NO[C@]3(C=C(Br)C(OC)=C(Br)[C@@H]3O)C1)=NO2 [Compound 2, aerothionin]",–,−1.5% and 6.1%,>32,–,10.9%,0.9% and 2.3%,> 32,> 32,> 32,> 32,"CC50 ([4]; human): > 32 mg/L; inhibition at 32 µg/mL ([5]; ATCC700603, 32 µg/mL, duplicate (n = 2) values, read-out: % inhibition K. pneumoniae): 10.4%"
"COC1=C(Br)[C@H](O)[C@@]2(C=C1Br)CC(C(=O)NCCCCCNC(=O)C1=NO[C@]3(C=C(Br)C(OC)=C(Br)[C@@H]3O)C1)=NO2 [Compound 3, homoaerothionin]",16.1%,–,>32,> 32,6.6%,−2.9% and −3.1%,> 32,> 32,> 32,> 32,"% inhibition A. baumannii ([1]; 32 µg/mL, duplicate (n = 2) values): 9.8%; inhibition at 32 µg/mL ([1]; Acinetobacter baumannii, ATCC19606, read-out: % inhibition A. baumannii, 32 µg/mL, duplicate (n = 2) values): 13.8%; inhibition at 32 µg/mL ([2]; Cryptococcus neoformans, ATCC208821, read-out: % inhibition C. neoformans, 32 µg/mL, duplicate (n = 2) values): 10.6%; inhibition at 32 µg/mL ([5]; ATCC700603, read-out: % inhibition K. pneumoniae, 32 µg/mL, duplicate (n = 2) values): 10.2%"

# Reference: paper PMC9503778, “Targeted Isolation of Antibiotic Brominated Alkaloids from the Marine Sponge Pseudoceratina durissima Using Virtual Screening and Molecular Networking” (Marine Drugs, 2022)
